The source of these data is patent publication US9636299B2, “Method for treating diabetic retinopathy” (XAVIER UNIVERSITY OF LOUISIANA, priority 2012, dated 2017).

The subject of assay [1] is MMP9. Description: Laser photocoagulation-induced retinal injury in mice, MMP9 real-time RT-PCR. Format: in vivo, mouse. Particulars: apoEdp 40 mg/kg intraperitoneally once each day for 7 days, vs mice without apoEdp. The procedure:
Laser Photocoagulation-Induced Retinopathy. Female mice (C57BL/6J), aged 6-8 weeks, were used for retinal laser photocoagulation studies. The mice were treated and maintained in accordance with the ARVO Statement for the Use of Animals in Ophthalmic and Vision Research. The mice were anesthetized by intraperitoneal injection of a mixture of ketamine (100 mg/kg; Warner Lambert Co., Morris Plains, N.J.) and xylazine (10 mg/kg; Bayer AG, Leverkusen, Germany), and the pupils dilated with 2.5% tropicamide (Alcon, Fort Worth, Tex.). […]
RNA Extraction, Reverse Transcription, & PCR. […] Gene expression was measured at RNA level per 100 ng of total RNA using one-step RT-PCR kit (Bio-Rad, Hercules, Calif.). Four host genes (mouse GAPDH, mouse MMP2, mouse HPSE-1 (heparanase-1), and mouse MMP9) were analyzed to confirm relative quantitative expression levels. The primer pairs used were specifically designed and synthesized by Qiagen GmbH, Hilden, Germany (Quantitech Primer assay kit, for each host gene, catalog numbers QT01658692, QT00088396, QT00009555, and QT00040040, respectively). One-step Real-time quantitative RT-PCR reactions were performed in a 50-μL volume containing a solution of 1× supermix (iQ SYBR Green; Bio-Rad, Hercules, Calif.), 1 μM mix of forward and reverse primers, and 5 μL total RNA. […] Relative quantitative expression levels were determined for each gene. […]
A general note: In qPCR the cycle at which signal appears reflects the starting amount.

Assay [2] deals with zona occludin 1 (ZO-1). Description: Streptozotocin-induced diabetic mice, retinal ZO-1 immunohistochemistry. Particulars: 14 consecutive days, vs untreated diabetic. Type of assay: in vivo, mouse. The procedure:
Streptozotocin (STZ) induced diabetes. Twelve week old C57Bl/6 mice were used for this study. Mice were induced to have diabetes by intraperitoneal injection of 170 μg/g of streptozotocin (Sigma Aldrich, St. Louis, Mo.). Controls were injected with a vehicle (0.01M sodium citrate buffer). On the third day after STZ treatment, mice tail veins were bled to test the hyperglycemic status using blood sugar detection kit (Lifescan; Johnson & Johnson, Milpitas, Calif.). Mice with blood sugar levels of >300 mg/dL on the third day after STZ treatment were considered diabetic. Eye drop treatment containing 1% apoEdp or vehicle PBS was continued 4 times a day for 14 consecutive days. Intra-peritoneal (i/p) injection containing 40 mg/kg of apoEdp or vehicle control PBS was administered once daily for 14 consecutive days. On the 15th day post-treatment, mice were euthanized, their eyes enucleated, and the retinas dissected out to use for mRNA or Western blot analysis.
Immunohistochemistry. […]
To investigate the effect of apoEdp on attenuation of ZO-1 loss, immunohistochemical detection of ZO-1 was performed in formalin-fixed de-paraffinized sections of mouse retinas of different experimental groups. […] The number of positive cells was determined in the high-power field (×400) for the retinas.

Residues, ends and D or L forms follow the SMILES beside them.

On to `CC(=O)N[C@@H](CC(C)C)C(=O)N[C@@H](CCCNC(=N)N)C(=O)N[C@@H](CCCCN)C(=O)N[C@@H](CC(C)C)C(=O)N[C@@H](CCCNC(=N)N)C(=O)N[C@@H](CCCCN)C(=O)N[C@@H](CCCNC(=N)N)C(=O)N[C@@H](CC(C)C)C(=O)N[C@@H](CC(C)C)C(=O)N[C@@H](CC(C)C)C(=O)N[C@@H](CCCNC(=N)N)C(=O)N[C@@H](CCCCN)C(=O)N[C@@H](CC(C)C)C(=O)N[C@@H](CCCNC(=N)N)C(=O)N[C@@H](CCCCN)C(=O)N[C@@H](CCCNC(=N)N)C(=O)N[C@@H](CC(C)C)C(=O)N[C@@H](CC(C)C)C(N)=O` [apoEdp, Ac-LRKLRKRLLLRKLRKRLL-amide] (Ac-LRKLRKRLLLRKLRKRLL-NH2), for which the “Expression of MMP9 in retina” value in assay [1] is “dramatically reduced”. Moreover, the “Number of ZO-1 positive cells in retina (high-power field ×400)” value in assay [2] (i/p injections 40 mg/kg) and in assay [2] (topical 1% apoEdp drops) was “significantly increased the number of positive cells” in each case.
